{
  "source": "patent US20230364057A1",
  "about": "“BACTERIAL DNA GYRASE INHIBITORS AND METHODS OF USE THEREOF” (THE FLORIDA INTERNATIONAL UNIVERSITY BOARD OF TRUSTEES, priority 2022, published 2023)",
  "key": {"[1]": {"target": "T1, E. coli DNA gyrase (Escherichia coli (strain K12), UniProt P0AES4+P0AES6)", "test": "DNA gyrase mediated DNA cleavage assay", "assay_type": "biochemical", "settings": "pBR322", "how_it_was_run": "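Supercoiled pBR322 (250 ng) incubated with 50 nM E. coli gyrase, 1.75 mM ATP and 200 µM compound in Tris-HCl/KCl/MgCl2/DTT/BSA/glycerol buffer, 37° C, 15 min. Complexes trapped with SDS and proteinase K (37° C, 1 h); cleavage products resolved on ethidium-stained agarose gel.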"}, "[2]": {"tested_on": "NCI panel of 60 cancer cell lines", "settings": "up to 1 mM; results of NCI DTP; cited from earlier work"}, "[3]": {"tested_on": "E. coli (ATCC 25922)", "test": "Minimum inhibitory concentration, broth microdilution"}, "[4]": {"target": "T1, E. coli DNA gyrase", "test": "Agarose gel-based DNA gyrase inhibition assay", "assay_type": "biochemical", "description": "100 ng of DNA gyrase was used to supercoil the rx pAB1 in the presence of different concentrations of a gyrase inhibitor. […] Samples were analyzed by electrophoresis in 1% w/v agarose gels followed by ethidium bromide staining and photographed under UV light."}, "[5]": {"target": "Mtb gyrase (Mycobacterium tuberculosis (strain ATCC 25618 / H37Rv), UniProt P9WG45+P9WG47)", "test": "Mtb gyrase mediated DNA cleavage assay", "assay_type": "biochemical", "settings": "pBR322, 50-100 µM", "description": "The IC50 against E. coli (A) and Mtb (C) gyrase were determined using the gel-based gyrase inhibition assays. The gyrase mediated DNA cleavage assays (B and D) were performed using pBR322. (A) 229 inhibits E. coli gyrase. Lane 1, rx pAB1. […] Lane 1, rx pAB1. […] 100 µM of CPDs were used. Symbols rx, nk, In, and sc represent relaxed, nicked, linear, and supercoiled DNA, respectively."}, "[6]": {"test": "in vitro", "settings": "human"}, "[7]": {"test": "in vitro", "settings": "mouse"}, "[8]": {"tested_on": "S. aureus (ATCC 14775)", "test": "Minimum inhibitory concentration, broth microdilution", "settings": "Staphylococcus aureus, ATCC14775, read-out: MIC (µM) Sa", "quoted_text": "Antibacterial minimum inhibitory concentrations (MICs) were obtained from three independent experiments using broth microdilution methods in 96-well plates according to Clinical and Laboratory Standards Institute guidelines. Cells were culture from singles colonies in MHIIB medium for 24 h at 37° C. in agitation (200 RPM). The cultures were then diluted using the same media to reach an OD600 of 0.1. Then, 50 µL of the diluted cultures were added to the plates holding 50 µL of serially diluted compounds in MHIIB. The plates were incubated at 37° C. for 20 h. The starting inoculum was fixated to 10^5 colony-forming units per ml."}, "[9]": {"tested_on": "CDF1 mice", "settings": "800 mg/kg, 5 days, results of NCI DTP; cited from earlier work"}, "[10]": {"tested_on": "Mtb", "test": "Mtb whole cell assay (% inhibition, MIC)", "assay_type": "cell-based, Mycobacterium tuberculosis", "settings": "Mycobacterium tuberculosis"}, "[11]": {"target": "Mtb DNA gyrase (Mycobacterium tuberculosis (strain ATCC 25618 / H37Rv), UniProt P9WG45+P9WG47)", "test": "Mtb DNA gyrase inhibition assay (gel-based)", "assay_type": "biochemical", "how_it_was_run": "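Supercoiling by 100 ng Mtb gyrase of 400 ng relaxed pAB1 in buffer with 1.75 mM ATP, pH 7.5, across inhibitor concentrations. Reactions ran 15 min at 37° C, stopped with SDS/EDTA. Products resolved on 1% agarose, ethidium bromide-stained; IC50 determined from gels.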"}, "[12]": {"tested_on": "M. abscessus", "test": "MIC against M. abscessus", "assay_type": "cell-based, Mycobacterium abscessus", "settings": "Mycobacteroides abscessus"}, "[13]": {"target": "T1, E. coli DNA gyrase", "test": "biochemical", "assay_type": "biochemical"}},
  "note": "pIC50: −log10 of the molar value. Where “and” joins values, the source holds several entries; their conditions need not be identical. Equal entries are not always repeated. Entries after “also recorded” stand apart in the source; their conditions may differ.",
  "data": [
    {"smiles": "C[n+]1c(-c2ccc(C=NNC(=O)c3ccc(C(=O)NN=Cc4ccc(-c5cn6ccccc6[n+]5C)cc4)cc3)cc2)cn2ccccc21", "note": "[Compound 229]", "values": [
      {"measurement": "E. coli DNA gyrase-mediated DNA breaks and nicking", "setting": "[1]", "result": "enhances the E. coli gyrase-mediated DNA nicking; also recorded: induces DNA nicking"},
      {"measurement": "cytotoxicity against the NCI panel of 60 cancer cell lines", "setting": "[2]", "result": "no cytotoxicity"},
      {"measurement": "MIC (µM) Ec", "setting": "[3]; E. coli strain ATCC25922", "result": 12.5, "unit": "µM"},
      {"measurement": "MIC", "setting": "[3]; Escherichia coli, ATCC25922, read-out: MIC (µM) Ec, E. coli strain ATCC25922", "result": "6.25 to 12.5", "unit": "µM"},
      {"measurement": "inhibition of E. coli DNA gyrase activities", "setting": "[4]; 50 µM of compounds", "result": "completely inhibited"},
      {"measurement": "inhibition of E. coli DNA gyrase activities", "setting": "[4]; 200 µM of compounds", "result": "completely inhibited"},
      {"measurement": "pIC50", "setting": "[4]; gel-based, read-out: IC50 against E. coli DNA gyrase", "result": 4.80},
      {"measurement": "Mtb gyrase-mediated DNA nicking and double-stranded breaks", "setting": "[5]", "result": "significantly enhances the gyrase-mediated DNA nicking and double-stranded breaks"},
      {"measurement": "pIC50", "setting": "[6]", "result": "< 3.70"},
      {"measurement": "pIC50", "setting": "[7]", "result": "< 3.70"},
      {"measurement": "MIC", "setting": "[8]", "result": "> 200", "unit": "µM"},
      {"measurement": "survival", "setting": "[9]", "result": 100, "unit": "%"},
      {"measurement": "MIC", "setting": "[10]", "result": 7.1, "unit": "µM"},
      {"measurement": "inhibition of Mtb DNA gyrase activities", "setting": "[11]", "result": "potently inhibits"},
      {"measurement": "IC50", "setting": "[11]; Table 10, read-out: IC50 (µM) Mtb gyrase", "result": "~2.6 µM and 2.6 µM"},
      {"measurement": "MIC", "setting": "[12]", "result": 10.1, "unit": "µM"},
      {"measurement": "inhibition of E. coli DNA gyrase activities", "setting": "[13]", "result": "inhibits"}
    ]}
  ]
}
